In patent US7601716B2, “Pyridopyrazines and derivatives thereof as ALK and c-Met inhibitors” (Cephalon, Inc., priority 2006, dated 2009):

Key:
[1] = target: baculovirus-expressed ALK (Homo sapiens, UniProt Q9UM73); assay: ALK Kinase Assay (ELISA/TRF, PLC-γ substrate); type: biochemical; conditions: read-out: ALK Kinase Inhibition (IC50); also: 1 µM ATP (Km level)
Method in brief: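 Plates coated with GST-PLC-γ substrate (10 µg/mL in TBS), then reaction started with 30 ng/ml baculovirus-expressed ALK, 15 min at 37 °C. Phosphotyrosine detected by Eu-labeled PT66 antibody and time-resolved fluorescence. IC50 from variable-slope sigmoidal fit of percent inhibition versus log concentration.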

[2] = target: T1, c-Met (cytoplasmic domain) (Homo sapiens, UniProt P08581); assay: c-Met Kinase Assay (ELISA/TRF, PLC-γ substrate); type: biochemical; conditions: 3 μM ATP (Km level); read-out: c-Met Kinase Inhibition (IC50)
T1 construct: Reactions were initiated with 30 ng/mL c-Met (cytoplasmic domain, Invitrogen Corporation #PV3143); purchased Invitrogen Corporation PV3143
T1 sequence (P08581 956-1390 limits assumed): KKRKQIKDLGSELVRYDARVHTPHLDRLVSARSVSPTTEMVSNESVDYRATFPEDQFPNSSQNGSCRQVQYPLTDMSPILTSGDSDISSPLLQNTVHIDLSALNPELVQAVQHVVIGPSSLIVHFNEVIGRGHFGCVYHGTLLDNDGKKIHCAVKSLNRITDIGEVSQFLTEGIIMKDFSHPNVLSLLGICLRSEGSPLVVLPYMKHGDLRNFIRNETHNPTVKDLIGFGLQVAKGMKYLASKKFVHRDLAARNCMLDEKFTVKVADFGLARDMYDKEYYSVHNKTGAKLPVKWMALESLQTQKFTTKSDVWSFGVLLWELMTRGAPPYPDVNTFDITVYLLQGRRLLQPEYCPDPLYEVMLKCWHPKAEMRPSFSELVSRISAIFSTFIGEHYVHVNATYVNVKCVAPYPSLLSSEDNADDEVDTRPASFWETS
Method in brief: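 c-Met cytoplasmic domain (30 ng/mL) phosphorylates plate-coated GST–PLC-γ for 15 min at 37 °C. Phosphotyrosine detected with Eu-labeled PT66 antibody by time-resolved fluorescence. IC50 from variable-slope sigmoidal fit of % inhibition vs log concentration.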

Chain of baculovirus-expressed ALK (Q9UM73 19-1620): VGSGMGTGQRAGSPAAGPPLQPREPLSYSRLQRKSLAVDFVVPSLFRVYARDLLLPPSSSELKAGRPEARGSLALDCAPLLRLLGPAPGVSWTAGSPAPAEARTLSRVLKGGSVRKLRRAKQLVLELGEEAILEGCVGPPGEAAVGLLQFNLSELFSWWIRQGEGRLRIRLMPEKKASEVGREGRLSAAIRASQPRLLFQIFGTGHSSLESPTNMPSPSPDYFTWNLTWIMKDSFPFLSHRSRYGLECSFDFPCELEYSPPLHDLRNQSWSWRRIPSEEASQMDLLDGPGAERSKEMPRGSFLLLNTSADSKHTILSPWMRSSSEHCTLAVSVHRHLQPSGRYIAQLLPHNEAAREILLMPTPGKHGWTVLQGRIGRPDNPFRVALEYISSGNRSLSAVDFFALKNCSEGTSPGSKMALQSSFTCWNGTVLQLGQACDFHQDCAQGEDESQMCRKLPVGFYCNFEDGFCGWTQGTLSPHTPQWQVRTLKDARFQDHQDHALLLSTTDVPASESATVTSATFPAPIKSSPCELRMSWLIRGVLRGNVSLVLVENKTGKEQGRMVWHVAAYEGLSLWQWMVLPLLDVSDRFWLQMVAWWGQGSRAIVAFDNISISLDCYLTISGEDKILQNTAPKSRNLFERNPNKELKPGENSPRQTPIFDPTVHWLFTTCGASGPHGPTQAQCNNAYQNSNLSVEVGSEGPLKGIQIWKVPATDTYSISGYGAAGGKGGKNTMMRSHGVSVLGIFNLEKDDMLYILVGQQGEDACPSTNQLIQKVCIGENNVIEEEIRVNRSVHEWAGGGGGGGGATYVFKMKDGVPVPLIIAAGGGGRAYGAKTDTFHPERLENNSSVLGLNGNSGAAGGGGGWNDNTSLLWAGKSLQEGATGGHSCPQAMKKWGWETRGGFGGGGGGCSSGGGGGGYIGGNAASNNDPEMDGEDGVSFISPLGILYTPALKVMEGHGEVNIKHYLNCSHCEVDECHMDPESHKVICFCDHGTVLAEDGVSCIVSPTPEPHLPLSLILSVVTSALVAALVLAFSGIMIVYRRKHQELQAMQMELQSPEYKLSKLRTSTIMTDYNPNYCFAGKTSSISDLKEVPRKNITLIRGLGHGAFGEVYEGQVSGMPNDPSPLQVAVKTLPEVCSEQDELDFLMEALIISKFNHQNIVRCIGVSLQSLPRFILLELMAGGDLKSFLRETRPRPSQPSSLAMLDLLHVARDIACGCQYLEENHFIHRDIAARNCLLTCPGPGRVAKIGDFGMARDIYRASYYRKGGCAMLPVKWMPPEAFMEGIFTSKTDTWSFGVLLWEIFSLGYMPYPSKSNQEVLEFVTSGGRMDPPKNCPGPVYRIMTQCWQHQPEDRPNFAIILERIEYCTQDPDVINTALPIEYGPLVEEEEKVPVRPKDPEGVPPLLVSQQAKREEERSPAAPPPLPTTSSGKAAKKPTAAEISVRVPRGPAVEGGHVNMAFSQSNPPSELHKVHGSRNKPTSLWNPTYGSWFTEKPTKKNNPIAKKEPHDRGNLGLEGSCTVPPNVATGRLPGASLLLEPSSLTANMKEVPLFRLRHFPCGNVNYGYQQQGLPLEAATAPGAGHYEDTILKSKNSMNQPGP

| Structure (SMILES) | IC50 [1] [µM] | IC50 [2] [µM] | melting point |
| --- | --- | --- | --- |
| CC1(C)Nc2ncc(I)cc2NC1=O [Example 91, 7-Iodo-3,3-dimethyl-3,4-dihydro-1H-pyrido[2,3-b]pyrazin-2-one] | > 100 | 10 to 100 | > 300 °C |
| CC1(C)Nc2ncc(I)cc2N(Cc2cc(F)ccc2F)C1=O [Example 92, 1-(2,5-Difluorobenzyl)-7-iodo-3,3-dimethyl-3,4-dihydro-1H-pyrido[2,3-b]pyrazin-2-one] | > 100 | > 100 | 198 to 201 °C |
| CC1(C)CN(Cc2cc(F)ccc2F)c2cc(I)cnc2N1 [Example 93, 1-(2,5-Difluorobenzyl)-7-iodo-3,3-dimethyl-1,2,3,4-tetrahydropyrido[2,3-b]pyrazine] | > 100 | > 100 | 168 to 169 °C |
| Fc1ccc(F)c(CN2CCNc3ncc(I)cc32)c1Cl [Example 98, 1-(2-Chloro-3,6-difluorobenzyl)-7-iodo-1,2,3,4-tetrahydropyrido[2,3-b]pyrazine] | 1 to 10 | > 100 | 156 to 157 °C |
| Cc1noc(C)c1-c1cnc2c(c1)N(Cc1c(F)ccc(F)c1Cl)CCN2 [Example 103, 1-(2-Chloro-3,6-difluorobenzyl)-7-(3,5-dimethyl-isoxazol-4-yl)-1,2,3,4-tetrahydropyrido[2,3-b]pyrazine] | 0.1 to 1 | 10 to 100 | 215 to 216 °C |
| Fc1ccc(F)c(CN2CCNc3ncc(-c4cnc(N5CCOCC5)nc4)cc32)c1Cl [Example 107, 1-(2-Chloro-3,6-difluorobenzyl)-7-(2-morpholin-4-yl-pyrimidin-5-yl)-1,2,3,4-tetrahydropyrido[2,3-b]pyrazine] | < 0.1 | 10 to 100 | 250 to 251 °C |
| CN1CCN(c2ccc(-c3cnc4c(c3)NCCN4)cn2)CC1 [Example 109, 7-[6-(4-Methylpiperazin-1-yl)pyridin-3-yl]-1,2,3,4-tetrahydropyrido[2,3-b]pyrazine] | 10 to 100 | > 100 | 225 °C (dec.) |
| O=C(Cc1cc(F)ccc1F)N1CCNc2ncc(I)cc21 [Example 112, 2-(2,5-Difluorophenyl)-1-(7-iodo-3,4-dihydro-2H-pyrido[2,3-b]pyrazin-1-yl)ethanone] | 10 to 100 | 10 to 100 | 152 to 153 °C |
| FC(F)(F)c1ccc(Cl)cc1CN1CCNc2ncc(I)cc21 [Example 115, 1-(5-Chloro-2-trifluoromethylbenzyl)-7-iodo-1,2,3,4-tetrahydropyrido[2,3-b]pyrazine] | 1 to 10 | > 100 | 189 to 191 °C |
| O=C1CNc2ncc(I)cc2N1Cc1cc(C(F)(F)F)ccc1Cl [Example 116, 1-(2-Chloro-5-trifluoromethylbenzyl)-7-iodo-3,4-dihydro-1H-pyrido[2,3-b]pyrazin-2-one] | 10 to 100 | > 100 | 252 to 253 °C |
| FC(F)(F)c1ccc(Cl)c(CN2CCNc3ncc(I)cc32)c1 [Example 119, 1-(2-Chloro-5-trifluoromethylbenzyl)-7-iodo-1,2,3,4-tetrahydropyrido[2,3-b]pyrazine] | > 100 | > 100 | 120 to 125 °C |
| O=S(=O)(c1cc(F)ccc1F)N1CCNc2ncc(I)cc21 [Example 121, 1-(2,5-Difluorobenzenesulfonyl)-7-iodo-1,2,3,4-tetrahydropyrido[2,3-b]pyrazine] | 1 to 10 | 10 to 100 | 187 to 188 °C |
| O=S(=O)(c1ccccc1Cl)N1CCNc2ncc(I)cc21 [Example 124, 1-(2-Chlorobenzenesulfonyl)-7-iodo-1,2,3,4-tetrahydropyrido[2,3-b]pyrazine] | 1 to 10 | 10 to 100 | 146 to 147 °C |
| CN1CCN(c2ccc(-c3cnc4c(c3)N(S(=O)(=O)c3ccccc3Cl)CCN4)cn2)CC1 [Example 126, 1-(2-Chlorobenzenesulfonyl)-7-[6-(4-methylpiperazin-1-yl)pyridin-3-yl]-1,2,3,4 tetrahydropyrido[2,3-b]pyrazine] | 0.1 to 1 | 1 to 10 | 164 to 165 °C |
| N#Cc1cnc2c(c1)N(Cc1cc(Cl)ccc1Cl)CCN2 [Example 127, 1-(2,5-Dichlorobenzyl)-1,2,3,4-tetrahydropyrido[2,3-b]pyrazine-7-carbonitrile] | 1 to 10 | > 100 | 221 to 222 °C |
| O=C(O)c1cnc2c(c1)N(Cc1cc(Cl)ccc1Cl)CCN2 [Example 128, 1-(2,5-Dichlorobenzyl)-1,2,3,4-tetrahydropyrido[2,3-b]pyrazine-7-carboxylic acid] | > 100 | 10 to 100 | 273 °C (dec.) |
| CC(C)(C)OC(=O)N1CC=C(c2cnc3c(c2)N(Cc2cc(Cl)ccc2Cl)CCN3)CC1 [Example 130, 4-[1-(2,5-Dichlorobenzyl)-1,2,3,4-tetrahydropyrido[2,3-b]pyrazin-7-yl]-3,6-dihydro-2H-pyridine-1-carboxylic acid tert-butyl ester] | 1 to 10 | 10 to 100 | 92 to 95 °C |
| Clc1ccc(Cl)c(CN2CCNc3ncc(C4=CCNCC4)cc32)c1 [Example 131, 1-(2,5-Dichlorobenzyl)-7-(1,2,3,6-tetrahydropyridin-4-yl)-1,2,3,4-tetrahydropyrido[2,3-b]pyrazine] | 1 to 10 | 1 to 10 | 133 to 136 °C |

Second part, the compound after the results:

| IC50 [1] [µM] | IC50 [2] [µM] | melting point | Structure (SMILES) |
| --- | --- | --- | --- |
| > 100 | 10 to 100 | 154 to 156 °C | Fc1cc(F)c(CN2CCNc3ncc(I)cc32)cc1F [Example 82, 7-Iodo-1-(2,4,5-trifluorobenzyl)-1,2,3,4-tetrahydropyrido[2,3-b]pyrazine] |
| 1 to 10 | 10 to 100 | 117 to 118 °C | O=C1CNc2ncc(-c3ccc(C(=O)N4CCC[C@H]4CN4CCCC4)cc3)cc2N1Cc1cc(F)c(F)cc1F [Example 83, 7-[4-((S)-2-[(pyrrolidin-1-yl)methyl]pyrrolidine-1-carbonyl)phenyl]-1-(2,4,5-trifluorobenzyl)-3,4-dihydro-1H-pyrido[2,3-b]pyrazin-2-one] |
| 10 to 100 | 10 to 100 | 238 °C | CN1CCN(C(=O)c2ccc(-c3cnc4c(c3)N(Cc3cc(F)c(F)cc3F)C(=O)CN4)cc2)CC1 [Example 85, 7-[4-(4-Methylpiperazine-1-carbonyl)phenyl]-1-(2,4,5-trifluorobenzyl)-3,4-dihydro-1H-pyrido[2,3-b]pyrazin-2-one] |
| 10 to 100 | 1 to 10 | 201 to 203 °C | CN1CCN(C(=O)c2ccc(-c3cnc4c(c3)N(C(=O)c3cc(F)ccc3F)CCN4)cc2)CC1 [Example 88, (2,5-Difluorophenyl)-{7-[4-(4-methylpiperazine-1-carbonyl)phenyl]-3,4-dihydro-2H-pyrido[2,3-b]pyrazin-1-yl}-methanone] |
| 1 to 10 | 10 to 100 | 171 to 172 °C | CC1(C)Nc2ncc(-c3ccc(C(=O)N4CCC[C@H]4CN4CCCC4)cc3)cc2N(Cc2cc(F)ccc2F)C1=O [Example 94, 1-(2,5-Difluorobenzyl)-3,3-dimethyl-7-[4-((S)-2-[(pyrrolidin-1-yl)methyl]pyrrolidine-1-carbonyl)phenyl]-3,4-dihydro-1H-pyrido[2,3-b]pyrazin-2-one] |
| 1 to 10 | 10 to 100 | 204 to 206 °C | CN1CCN(C(=O)c2ccc(-c3cnc4c(c3)N(Cc3cc(F)ccc3F)C(=O)C(C)(C)N4)cc2)CC1 [Example 95, 1-(2,5-Difluorobenzyl)-3,3-dimethyl-7-[4-(4-methylpiperazine-1-carbonyl)phenyl]-3,4-dihydro-1H-pyrido[2,3-b]pyrazin-2-one] |
| 1 to 10 | 10 to 100 | 74 to 77 °C | CC1(C)CN(Cc2cc(F)ccc2F)c2cc(-c3ccc(C(=O)N4CCC[C@H]4CN4CCCC4)cc3)cnc2N1 [Example 96, {4-[1-(2,5-Difluorobenzyl)-3,3-dimethyl-1,2,3,4-tetrahydropyrido[2,3-b]pyrazin-7-yl]phenyl}-((S)-2-((pyrrolidin-1-yl)methyl)pyrrolidin-1-yl)methanone] |
| 10 to 100 | > 100 | 191 to 192 °C | CN1CCN(C(=O)c2ccc(-c3cnc4c(c3)N(Cc3cc(F)ccc3F)CC(C)(C)N4)cc2)CC1 [Example 97, {4-[1-(2,5-Difluorobenzyl)-3,3-dimethyl-1,2,3,4-tetrahydropyrido[2,3-b]pyrazin-7-yl]phenyl}-(4-methylpiperazin-1-yl)methanone] |
| < 0.1 | 10 to 100 | 217 to 219 °C | Fc1ccc(F)c(CN2CCNc3ncc(-c4ccc(N5CCOCC5)cc4)cc32)c1Cl [Example 108, 1-(2-Chloro-3,6-difluorobenzyl)-7-(4-morpholin-4-yl-phenyl)-1,2,3,4-tetrahydropyrido[2,3-b]pyrazine] |
| 1 to 10 | 10 to 100 | > 300 °C | CN1CCN(c2ccc(-c3cnc4c(c3)N(C(=O)Cc3cc(F)ccc3F)CCN4)cn2)CC1 [Example 113] |
| > 100 | > 100 | 244 to 245 °C | O=C1CNc2ncc(I)cc2N1Cc1cc(F)ccc1C(F)(F)F [Example 133, 1-(5-Fluoro-2-trifluoromethylbenzyl)-7-iodo-3,4-dihydro-1H-pyrido[2,3-b]pyrazin-2-one] |
